The values below come from patent US7563946B2, “Plant development regulating gene and its uses” (CropDesign, N.V., priority 2000, dated 2009).

Assay [1] relates to DR5::GUS. Nature of the assay: Auxin sensitivity test, DR5::GUS expression in wildtype seedlings. The settings on record: 3 days on medium. In kind it is in vivo, Arabidopsis thaliana. From the text:
(§1) However, new methods to detect auxin responses have emerged, for example with synthetic auxin responsive promoter elements binding ARF transcription factors, such as DR5::GUS (Ulmasov et al., 1997). Since there is also a resemblance of the hbt early embryo phenotype to axr6, bdl and mp mutants (Hardtke and Berleth, 1998; Hamann et al., 1999; Hobbie et al 2000), we used the DR5::GUS construct to re-investigated auxin responses in hbt seedlings. In wildtype seedling roots there is a maximum of DR5::GUS staining in the upper part of the columella (FIG. 17A). This peak is absent in hbt seedlings (FIG. 17F) where no GUS staining is visible. Since the specification of the columella cells is defective in hbt seedlings, we wanted to know whether hbt mutant cells are capable of sensing auxin. Therefore, hbt seedlings were incubated for 3 days on media containing different concentrations of the synthetic auxin 2,4 D, and DR5::GUS expression was analysed. […] It is therefore possible that the HBT gene has a role in the perception of auxin levels.
(§2) DR5::GUS expression in wt roots (A-E) and in hbt seedlings […]. Three days post germination seedlings were transferred to 0.5 GM plates (A and F) and 0.5 GM plates containing 10^−9 M 2,4 D (B and G), 10^−8 M 2,4 D (C and H), 10^−7 M 2,4 D (D and I) and 10^−6 M 2,4 D (E and J) and incubated for another three days. Mutants are shown at 10× magnification of the wildtype seedling.
(§3) DR5::GUS constructs was used (Ulmasov et al., 1997b). Seedlings were germinated on 0.5 GM medium as described, 3 dpg transferred to fresh 0.5 GM plates containing different concentrations of 2,4 D or IAA (5.10^−9 M until 5.10^−6 M) (see FIG. 17) and incubated for an additional 3 days. After that the b-glucuronidase was visualized as described (Willemsen et al., 1998).

In assay [2] the test system is DR5::GUS. Nature of the assay: Auxin sensitivity test, DR5::GUS expression in hbt mutant seedlings. In kind it is in vivo, Arabidopsis thaliana.
Description: as §1, §2, §3

For a further assay, the system named is hbt seedlings. Particulars: hbt seedlings treated with ethylene.

Regarding `O=C(O)COc1ccc(Cl)cc1Cl` [2,4 D], the “DR5::GUS expression in wildtype hypocotyls” value in the assay on DR5::GUS [1] (5.10^-6 M) is “never observed any ectopic DR5 expression”. The “DR5::GUS expression in wildtype root” value in the assay with DR5::GUS [1] (5.10^-7 M) is “quite intense and throughout the entire root”. The “DR5::GUS expression in wildtype roots” value in the assay with DR5::GUS [1] (5.10^-9 M until 5.10^-8 M) is reported as “ectopic expression of the DR5::GUS promoter in the meristem of wildtype roots”. Besides, the “DR5::GUS expression in hbt hypocotyls” value with DR5::GUS [2] (5.10^-6 M, 3 days on medium) is reported as “strong DR5 expression”. In addition, in the assay on DR5::GUS [2] (5.10^-7 M, 3 days on medium), the “DR5::GUS expression in hbt root pole” value is given as “a DR5 peak in the root pole of hbt”. Also, the “DR5::GUS staining in hbt seedlings” value in the assay on DR5::GUS [2] (5.10^-9 M until 5.10^-8 M, 3 days on medium) is “no staining observed”. In the assay on DR5::GUS [2] (embryos, after induction), the “DR5::GUS expression in hbt embryos compared to wildtype” value is given as “no differences compared to wildtype”. For the same molecule, in the assay on DR5::GUS [2] (hbt seedlings versus wildtype), the “Auxin sensitivity of hbt seedlings (synthetic auxin response element)” value is “altered auxin sensitivity”.
As for `C=C` [ethylene], the “Re-specification of epidermal cells on the hypocotyl” value in the assay on hbt seedlings was “a large number of ectopic outgrowths was induced”.
